This experiment has as its target T1, human Kv1.3 (Homo sapiens, UniProt P22001).
T1 construct: expressed in transfected cells; host or cells: stably transfected cells grown in medium for CHO cells
Nature of the experiment: Kv1.3 Autopatch electrophysiology (whole cell patch-clamp, inhibition of charge movement). In kind it is cell-based. Conditions: compound at 1 μM, cells stably transfected with human Kv1.3, room temperature, total charge during step to +30 mV relative to control; for inhibition at 1 µM: read-out: hKv1.3 % inh. As for the experimental part: Kv1.3 Autopatch Electrophysiology Method
Compounds were tested on these cells using the AutoPatch technology in whole cell mode.
The external bathing solution contained (in mM): 150 NaCl, 10 KCl, 1 MgCl2, 3 CaCl2, 10 HEPES, pH 7.4 with NaOH. Patch pipettes were filled with an electrode solution of composition (in mM): 100 K-Gluconate, 20 KCl, 1 MgCl2, 1 CaCl2, 10 HEPES, 11 EGTA, 5 ATP-Na2, 2 Glutathione pH 7.2 with KOH.
Compounds were dissolved in DMSO (100%) and made up in the external bather at a concentration of 1 μM immediately prior to use. All experiments were conducted at room temperature.
A cell suspension (10 ml), with a density of 6×10^6 cells, was aliquoted into a 15 ml centrifuge tube and stored at 4° C. before use. Prior to use a tube was taken and centrifuged at 1000 rpm for 4 mins at room temperature. The supernatant was then discarded, leaving a cell pellet at the bottom of the tube. The pellet was then resuspended using 1 ml of cold (4° C.), filtered (0.22 μm), 0.05% BSA/bather solution (0.05 g BSA/100 ml bather). The bottom of the tube was manually agitated followed by gentle tituration. The cell suspension was then placed in the AutoPatch™ temperature controlled cell-hotel at 14° C. and regularly titurated.
A length of Teflon capillary tubing was dipped into the cell suspension solution, and a column of fluid was taken up by negative pressure. The column of fluid was in electrically connectivity with a Ag/AgCl reference electrode. Borosilicate glass patch pipettes (from 1.5 mm OD, thin-walled filamented, GC150-TF capillary glass, Harvard) were pulled using a DMZ pipette puller (Zeitz Instruments), and were back-filled using the internal pipette solution, being careful that no bubbles remained at the tip or in the body of the pipette. Patch pipettes typically had resistances of 2.5-3.5 MΩ. Once filled, the pipette tip and a proportion of the shaft (˜15 mm) were dipped into Sigmacote (Sigma). The recording pipettes were placed in a multiwell array and mounted on the AutoPatch™ machine. Automated patch-clamping and drug-application was initiated by the operator, but thereafter AutoPatch.exe continued the experiment providing that pre-set conditions and criteria were satisfied.
Whole cell patch-clamp recordings were made using the AutoPatch™ rig, which incorporated an EPC9 or EPC10 amplifier (HEKA, Germany) under control of Pulse software (v8.54 or v8.76, HEKA, Germany), a cell applicator, automated drug application system (DAS), valve controller (VF1) and a suction device all at room temperature. This equipment was completely under the control of AutoPatch.exe and operator intervention was only made when there was a requirement to refill the bather reservoirs or to prevent the loss of a cell due to a technical error.
Cells were continuously perfused with external solution at a flow rate of ˜2 ml/minute.
Electrophysiology voltage-step protocols and analysis of data was performed as follows. Data were sampled at 5 kHz, and filtered with a −3 dB bandwidth of 2.5 kHz. Cells were held at a voltage of −80 mV. Currents were evoked by a voltage step to +30 mV for 500 ms in duration applied every 15 s. Online analysis of the hKv1.3 current during the application of compounds was performed by the Pulse (v8.54 or v8.76, HEKA, Germany), Excel (Microsoft, USA) and AutoPatch™ software, with the total charge measured during the whole of voltage step. Inhibition of charge movement in the presence of drug was calculated relative to control.

T1 sequence (P22001 whole entry): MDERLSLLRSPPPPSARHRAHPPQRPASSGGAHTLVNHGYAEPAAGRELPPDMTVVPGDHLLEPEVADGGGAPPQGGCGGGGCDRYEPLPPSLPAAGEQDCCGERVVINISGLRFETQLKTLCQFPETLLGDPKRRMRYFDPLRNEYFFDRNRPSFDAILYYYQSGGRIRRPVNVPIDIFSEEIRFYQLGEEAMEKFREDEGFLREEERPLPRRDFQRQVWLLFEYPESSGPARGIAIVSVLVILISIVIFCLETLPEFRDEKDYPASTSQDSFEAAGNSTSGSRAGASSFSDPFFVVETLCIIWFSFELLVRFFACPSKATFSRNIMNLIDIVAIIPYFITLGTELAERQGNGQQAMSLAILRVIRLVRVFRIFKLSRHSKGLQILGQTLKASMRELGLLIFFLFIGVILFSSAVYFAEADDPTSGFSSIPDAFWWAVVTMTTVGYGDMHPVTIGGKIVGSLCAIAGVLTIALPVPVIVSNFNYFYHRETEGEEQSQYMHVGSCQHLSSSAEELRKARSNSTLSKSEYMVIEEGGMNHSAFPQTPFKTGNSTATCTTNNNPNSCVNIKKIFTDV

Regarding “1-Methyl-1H-imidazole-4-sulfonic acid benzyl-[4-(3-phenyl-piperidine-1-carbonyl)-phenyl]-amide [Example 64]”, the hKv1.3 % inh. is on record as 86%.
On to `N#Cc1ccc(CN(c2ccc(C(=O)N3CCN(c4ccccc4)CC3)cc2)S(=O)(=O)c2ccccc2)cc1` [Example 2, N-(4-Cyano-benzyl)-N-[4-(4-phenyl-piperazine-1-carbonyl)-phenyl]-benzenesulfonamide], for which the inhibition at 1 µM came out at 76%.
Same read-out and setting: under `O=C(c1ccc(N(Cc2ccccc2)S(=O)(=O)c2ccccc2)cc1)N1CCCCC1` [Example 3, N-Benzyl-N-[4-(piperidine-1-carbonyl)-phenyl]-benzenesulfonamide] stands 94%; under `Cc1ccc(C2CCCN(C(=O)c3ccc(N(Cc4ccc(Cl)cc4)S(=O)(=O)c4ccccc4)cc3)C2)cc1` (centres unmarked) [Example 4, N-(4-Chloro-benzyl)-N-[4-(3-p-tolyl-piperidine-1-carbonyl)-phenyl]-benzenesulfonamide], 67%.
Consider `CN(C)S(=O)(=O)N(Cc1ccccc1)c1ccc(C(=O)N2CCN(c3ccccc3C#N)CC2)cc1` [Example 5, N-Benzyl-N′N′-dimethyl-N-{4-[4-(2-cyano-phenyl)-piperazine-1-carbonyl]-phenyl}-sulfamide], for which the hKv1.3 % inh. was determined as 42%.
In the case of `CN(C)S(=O)(=O)N(Cc1ccccc1)c1ccc(C(=O)N2CCOC(c3ccccc3)C2)cc1` (centres unmarked) [Example 6, N-Benzyl-N-[4-(2-phenyl-morpholine-4-carbonyl)-phenyl]-N′,N′-dimethylsulfamide], the inhibition at 1 µM was found to be 60%.
The same measure, in the same setting: the result for `CN1CCN(C(=O)c2ccc(N(Cc3ccccc3)S(=O)(=O)c3cn(C)cn3)cc2)CC1` [Example 7, 1-Methyl-1H-imidazole-4-sulfonic acid benzyl-[4-(4-methyl-piperazine-1-carbonyl)-phenyl]-amide] reads 38%.
As for `O=C(c1ccc(N(Cc2ccccc2)S(=O)(=O)c2ccc3ccccc3c2)cc1)N1CCN(c2ccccc2)CC1` [Example 13, Naphthalene-2-sulfonic acid benzyl-[4-(4-phenyl-piperazine-1-carbonyl)-phenyl]-amide], the inhibition at 1 µM stood at 51%.
With `N#Cc1ccc(S(=O)(=O)N(Cc2ccccc2)c2ccc(C(=O)N3CCN(c4ccccc4)CC3)cc2)cc1` [Example 22, N-Benzyl-4-cyano-N-[4-(4-phenyl-piperazine-1-carbonyl)-phenyl]-benzenesulfonamide], the inhibition at 1 µM amounted to 39%.
Still for that read-out and setting: the result for `Cc1cccc(S(=O)(=O)N(Cc2ccccc2)c2ccc(C(=O)N3CCN(c4ccccc4)CC3)cc2)c1` [Example 27, N-Benzyl-3-methyl-N-[4-(4-phenyl-piperazine-1-carbonyl)-phenyl]-benzenesulfonamide] reads 55%.
For `Cc1ccccc1CN(c1ccc(C(=O)N2CCN(c3ccccc3)CC2)cc1)S(=O)(=O)c1ccccc1` [Example 34, N-(2-Methyl-benzyl)-N-[4-(4-phenyl-piperazine-1-carbonyl)-phenyl]-benzenesulfonamide], the inhibition at 1 µM is 85%.
Same read-out and setting: the result for `O=C(c1ccc(N(Cc2ccc(C(F)(F)F)cc2)S(=O)(=O)c2ccccc2)cc1)N1CCN(c2ccccc2)CC1` [Example 36, N-[4-(4-Phenyl-piperazine-1-carbonyl)-phenyl]-N-(4-trifluoromethyl-benzyl)-benzenesulfonamide] reads 50%.
Turning to `O=C(c1ccc(N(Cc2cccc(OC(F)(F)F)c2)S(=O)(=O)c2ccccc2)cc1)N1CCN(c2ccccc2)CC1` [Example 37, N-[4-(4-Phenyl-piperazine-1-carbonyl)-phenyl]-N-(3-trifluoromethoxy-benzyl)-benzenesulfonamide], the inhibition at 1 µM came to 46%.
Consider `N#Cc1ccccc1CN(c1ccc(C(=O)N2CCN(c3ccccc3)CC2)cc1)S(=O)(=O)c1ccccc1` [Example 38, N-(2-Cyano-benzyl)-N-[4-(4-phenyl-piperazine-1-carbonyl)-phenyl]-benzenesulfonamide], for which the inhibition at 1 µM came to 50%.
Same read-out and setting: the result for `O=C(c1ccc(N(Cc2ccccc2)S(=O)(=O)c2ccco2)cc1)N1CCN(c2ccccc2)CC1` [Example 41, Furan-2-sulfonic acid benzyl-[4-(4-phenyl-piperazine-1-carbonyl)-phenyl]-amide] reads 81%; that for `COc1cccc(CN(c2ccc(C(=O)N3CCN(c4ccccc4)CC3)cc2)S(=O)(=O)c2cn(C)cn2)c1` [Example 45, 1-Methyl-1H-imidazole-4-sulfonic acid (3-methoxy-benzyl)-[4-(4-phenyl-piperazine-1-carbonyl)-phenyl]-amide], 54%; that for `Cc1ncc(S(=O)(=O)N(Cc2ccccc2)c2ccc(C(=O)N3CCN(c4ccccc4)CC3)cc2)n1C` [Example 47, 2,3-Dimethyl-3H-imidazole-4-sulfonic acid benzyl-[4-(4-phenyl-piperazine-1-carbonyl)-phenyl]-amide], 50%.
Same read-out and setting: the result for `CC1CN(C(=O)c2ccc(N(Cc3ccccc3)S(=O)(=O)c3ccccc3)cc2)CC(C)O1` (centres unmarked) [Example 56, N-Benzyl-N-[4-(2,6-dimethyl-morpholine-4-carbonyl)-phenyl]-benzenesulfonamide] reads 42%.
The same measure, in the same setting: the result for `O=C(c1ccc(N(Cc2ccccc2)S(=O)(=O)c2ccccc2)cc1)N1CCC(O)(c2ccccc2)CC1` [Example 58, N-Benzyl-N-[4-(4-hydroxy-4-phenyl-piperidine-1-carbonyl)-phenyl]benzenesulfonamide] reads 81%; that for `Cc1noc(C2CCCN(C(=O)c3ccc(N(Cc4ccc(Cl)cc4)S(=O)(=O)c4cn(C)cn4)cc3)C2)n1` (centres unmarked) [Example 60, 1-Methyl-1H-imidazole-4-sulfonic acid (4-chloro-benzyl)-{4-[3-(3-methyl-[1,2,4]oxadiazol-5-yl)-piperidine-1-carbonyl]-phenyl}-amide], 83%; that for `Cc1noc(C2CCCN(C(=O)c3ccc(N(Cc4ccccc4)S(=O)(=O)c4cn(C)cn4)cc3)C2)n1` (centres unmarked) [Example 65, 1-Methyl-1H-imidazole-4-sulfonic acid benzyl-{4-[3-(3-methyl-[1,2,4]oxadiazol-5-yl)-piperidine-1-carbonyl]-phenyl}-amide], 57%.
For the compound `Cn1cnc(S(=O)(=O)N(Cc2ccc(Cl)cc2)c2ccc(C(=O)N3CCCCC3)cc2)c1` [Example 67, 1-Methyl-1H-imidazole-4-sulfonic acid (4-chloro-benzyl)-[4-(piperidine-1-carbonyl)-phenyl]-amide], the inhibition at 1 µM came out at 43%.
Compound `CC(C)c1noc(C2CCCN(C(=O)c3ccc(N(Cc4ccccc4)S(=O)(=O)N(C)C)cc3)C2)n1` (centres unmarked) [Example 69, N-Benzyl-N′N′-dimethyl-N-{4-[3-(3-isopropyl-[1,2,4]oxadiazol-5-yl)-piperidine-1-carbonyl]-phenyl}-sulfamide] gave a hKv1.3 % inh. of 31%.
Still for that read-out and setting: the result for `CN(C)S(=O)(=O)N(Cc1ccccc1)c1ccc(C(=O)N2CCC(OCc3ccccc3)C2)cc1` (centres unmarked) [Example 70, N-Benzyl-N′N′-dimethyl-N-[4-(3-benzyloxy-pyrrolidine-1-carbonyl)-phenyl]-sulfamide] reads 26%.
Same read-out and setting: under `CN(C)S(=O)(=O)N(Cc1ccccc1)c1ccc(C(=O)N2CCC(O)(c3ccccc3)CC2)cc1` [Example 71, N-Benzyl-N′N′-dimethyl-N-[4-(4-hydroxy-4-phenyl-piperidine-1-carbonyl)-phenyl]-sulfamide] stands 27%.
Take `CN(C)S(=O)(=O)N(Cc1ccccc1)c1ccc(C(=O)N2CCC(Oc3ccccc3)CC2)cc1` [Example 72, N-Benzyl-N′N′-dimethyl-N-[4-(4-phenoxy-piperidine-1-carbonyl)-phenyl]-sulfamide]: the hKv1.3 % inh. was 68%.

The values above are taken from patent US8258138B2, “Potassium channel blockers” (Xention Limited, priority 2008, dated 2012).
